≈ marks a conversion by molar mass, not a printed value.
Experiments:
[1] = dynamic solubility in simulated gastrointestinal fluid; assay type: physicochemical; details: for solubility at 1 h / solubility at 4 h / solubility at 24 h: 37° C.; for XRPD of remaining solid: after 24 h
Procedure: After 24 h, the pH of the suspension was determined. The remaining suspension was centrifuged, and the remaining solid was subjected to XRPD characterization.

hygroscopicity by DVS = assay type: physicochemical
TYK2 = TYK2 (Homo sapiens, UniProt P29597); assay: migration detection kinase assay, TYK2; assay type: biochemical
[2] = press testing (crystal transformation under pressure); assay type: physicochemical; details: 10 Mpa, 5 min
simulated wet grinding = assay type: physicochemical; details: 3 min
[3] = water activity experiment at 25° C.; assay type: physicochemical; details: for XRPD result: 25° C.
Excerpt: The resulting solid was filtered and subjected to XRPD characterization.

simulated dry grinding = assay type: physicochemical; details: dry grinding for 3 min
[4] = stability investigation (influencing factor, accelerated, intermediate, long term); assay type: physicochemical
JAK1 = JAK1 (Homo sapiens, UniProt P23458); assay: migration detection kinase assay, JAK1; assay type: biochemical
JAK3 = molecular target: T1, JAK3 (Homo sapiens, UniProt P52333); assay: migration detection kinase assay, JAK3; assay type: biochemical; details: 1 mM ATP
T1 sequence (P52333 1-1124): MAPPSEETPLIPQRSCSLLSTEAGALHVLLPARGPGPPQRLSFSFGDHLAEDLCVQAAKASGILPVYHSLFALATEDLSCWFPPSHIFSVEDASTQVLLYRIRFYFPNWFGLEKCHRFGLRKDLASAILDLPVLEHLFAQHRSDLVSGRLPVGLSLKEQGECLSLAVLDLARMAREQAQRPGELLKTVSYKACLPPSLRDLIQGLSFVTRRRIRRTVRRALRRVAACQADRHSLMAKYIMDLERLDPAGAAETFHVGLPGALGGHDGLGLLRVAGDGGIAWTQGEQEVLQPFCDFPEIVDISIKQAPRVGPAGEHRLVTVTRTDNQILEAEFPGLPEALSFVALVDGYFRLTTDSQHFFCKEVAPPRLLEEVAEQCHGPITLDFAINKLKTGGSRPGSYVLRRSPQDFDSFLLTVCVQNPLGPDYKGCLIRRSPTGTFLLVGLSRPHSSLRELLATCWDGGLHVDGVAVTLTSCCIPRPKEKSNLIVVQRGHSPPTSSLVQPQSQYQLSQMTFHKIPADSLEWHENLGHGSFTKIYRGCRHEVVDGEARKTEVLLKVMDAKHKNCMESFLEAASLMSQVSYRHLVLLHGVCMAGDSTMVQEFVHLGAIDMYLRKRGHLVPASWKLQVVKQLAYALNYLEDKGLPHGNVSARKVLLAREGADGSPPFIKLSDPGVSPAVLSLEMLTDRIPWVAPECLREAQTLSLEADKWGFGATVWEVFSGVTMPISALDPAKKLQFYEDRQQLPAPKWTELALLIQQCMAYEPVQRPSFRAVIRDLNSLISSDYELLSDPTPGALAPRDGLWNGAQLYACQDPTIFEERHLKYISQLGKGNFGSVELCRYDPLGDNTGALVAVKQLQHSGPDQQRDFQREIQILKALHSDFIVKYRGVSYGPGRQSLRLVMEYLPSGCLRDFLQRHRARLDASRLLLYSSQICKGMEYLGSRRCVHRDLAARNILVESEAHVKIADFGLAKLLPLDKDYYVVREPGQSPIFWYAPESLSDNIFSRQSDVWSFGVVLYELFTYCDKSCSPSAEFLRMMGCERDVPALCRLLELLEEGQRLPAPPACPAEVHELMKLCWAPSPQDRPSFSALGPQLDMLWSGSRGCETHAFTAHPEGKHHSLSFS

JAK2 = JAK2 (Homo sapiens, UniProt O60674); assay: migration detection kinase assay, JAK2
[5] = phase II and phase III, treatment of AD; cited from earlier work
p-STAT signaling pathway = p-STAT signaling pathway induced by cytokines; details: in vivo and in vitro
keratinocytes = assay: proliferation of keratinocytes; assay type: cell-based; details: preclinical study
[6] = fassif, thermodynamic from solid, simulated pre-meal intestinal fluid
[7] = fessif, thermodynamic from solid, simulated postprandial intestinal fluid
[8] = simulated gastric fluid, thermodynamic from solid, simulated gastric juice

Sequence of JAK2 (O60674 whole entry): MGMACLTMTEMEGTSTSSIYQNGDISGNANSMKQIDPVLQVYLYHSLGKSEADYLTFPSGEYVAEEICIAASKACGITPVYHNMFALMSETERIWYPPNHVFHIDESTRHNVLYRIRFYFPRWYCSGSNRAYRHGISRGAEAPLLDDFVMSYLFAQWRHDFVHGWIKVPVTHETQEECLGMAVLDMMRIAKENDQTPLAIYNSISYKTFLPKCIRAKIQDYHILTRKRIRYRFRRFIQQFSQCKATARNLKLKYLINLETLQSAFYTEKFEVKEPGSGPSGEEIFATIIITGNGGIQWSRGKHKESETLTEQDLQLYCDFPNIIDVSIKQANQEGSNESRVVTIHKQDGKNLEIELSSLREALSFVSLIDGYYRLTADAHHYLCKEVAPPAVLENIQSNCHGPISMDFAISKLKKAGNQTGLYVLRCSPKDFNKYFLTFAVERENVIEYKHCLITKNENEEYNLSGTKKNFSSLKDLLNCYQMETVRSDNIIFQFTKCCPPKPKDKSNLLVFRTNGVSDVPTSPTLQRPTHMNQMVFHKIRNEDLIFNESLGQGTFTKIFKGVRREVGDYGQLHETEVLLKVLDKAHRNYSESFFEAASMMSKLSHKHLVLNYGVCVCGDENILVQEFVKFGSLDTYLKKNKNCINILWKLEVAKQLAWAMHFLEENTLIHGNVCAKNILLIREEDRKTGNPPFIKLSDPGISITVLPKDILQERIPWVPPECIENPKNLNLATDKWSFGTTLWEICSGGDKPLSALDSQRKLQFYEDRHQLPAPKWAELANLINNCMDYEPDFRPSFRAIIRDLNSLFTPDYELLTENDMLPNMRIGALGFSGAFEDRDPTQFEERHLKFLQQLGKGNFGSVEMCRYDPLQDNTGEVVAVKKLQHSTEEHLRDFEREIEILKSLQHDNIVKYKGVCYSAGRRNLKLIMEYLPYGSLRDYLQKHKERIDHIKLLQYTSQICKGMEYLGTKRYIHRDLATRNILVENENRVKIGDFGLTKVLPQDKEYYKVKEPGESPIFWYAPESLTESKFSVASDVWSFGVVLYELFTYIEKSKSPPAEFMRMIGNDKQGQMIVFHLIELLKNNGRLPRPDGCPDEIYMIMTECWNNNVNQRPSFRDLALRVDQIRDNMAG
Sequence of TYK2 (P29597 whole entry): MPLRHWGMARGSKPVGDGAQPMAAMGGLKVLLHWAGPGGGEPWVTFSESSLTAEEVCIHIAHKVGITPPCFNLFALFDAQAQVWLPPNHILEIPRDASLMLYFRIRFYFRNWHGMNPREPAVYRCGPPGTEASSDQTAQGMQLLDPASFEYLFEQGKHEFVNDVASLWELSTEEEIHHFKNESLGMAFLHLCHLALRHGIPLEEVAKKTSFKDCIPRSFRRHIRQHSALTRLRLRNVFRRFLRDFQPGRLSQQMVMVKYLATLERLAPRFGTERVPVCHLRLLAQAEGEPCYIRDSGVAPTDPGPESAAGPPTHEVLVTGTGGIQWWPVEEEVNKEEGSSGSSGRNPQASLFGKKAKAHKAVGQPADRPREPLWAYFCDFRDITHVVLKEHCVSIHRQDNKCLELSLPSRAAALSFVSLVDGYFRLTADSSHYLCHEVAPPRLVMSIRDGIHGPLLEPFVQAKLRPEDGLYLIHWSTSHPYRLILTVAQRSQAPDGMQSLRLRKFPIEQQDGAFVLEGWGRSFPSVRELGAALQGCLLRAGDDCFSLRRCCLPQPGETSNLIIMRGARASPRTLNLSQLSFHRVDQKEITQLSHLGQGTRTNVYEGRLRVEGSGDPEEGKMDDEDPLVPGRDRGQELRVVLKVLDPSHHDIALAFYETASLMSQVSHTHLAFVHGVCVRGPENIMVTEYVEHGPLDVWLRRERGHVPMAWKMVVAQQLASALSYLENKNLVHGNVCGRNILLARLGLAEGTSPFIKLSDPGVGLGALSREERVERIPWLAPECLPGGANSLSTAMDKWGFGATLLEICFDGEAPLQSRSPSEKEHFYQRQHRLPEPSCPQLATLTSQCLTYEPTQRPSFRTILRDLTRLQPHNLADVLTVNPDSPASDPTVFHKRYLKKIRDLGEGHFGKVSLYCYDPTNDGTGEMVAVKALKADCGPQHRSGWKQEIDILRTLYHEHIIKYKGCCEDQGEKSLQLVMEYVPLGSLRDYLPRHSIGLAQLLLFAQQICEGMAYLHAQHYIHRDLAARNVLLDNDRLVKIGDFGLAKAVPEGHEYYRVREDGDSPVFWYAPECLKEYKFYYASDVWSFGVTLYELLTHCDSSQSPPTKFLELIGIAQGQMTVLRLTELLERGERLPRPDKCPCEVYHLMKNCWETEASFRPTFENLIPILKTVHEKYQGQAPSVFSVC
Sequence of JAK1 (P23458 whole entry): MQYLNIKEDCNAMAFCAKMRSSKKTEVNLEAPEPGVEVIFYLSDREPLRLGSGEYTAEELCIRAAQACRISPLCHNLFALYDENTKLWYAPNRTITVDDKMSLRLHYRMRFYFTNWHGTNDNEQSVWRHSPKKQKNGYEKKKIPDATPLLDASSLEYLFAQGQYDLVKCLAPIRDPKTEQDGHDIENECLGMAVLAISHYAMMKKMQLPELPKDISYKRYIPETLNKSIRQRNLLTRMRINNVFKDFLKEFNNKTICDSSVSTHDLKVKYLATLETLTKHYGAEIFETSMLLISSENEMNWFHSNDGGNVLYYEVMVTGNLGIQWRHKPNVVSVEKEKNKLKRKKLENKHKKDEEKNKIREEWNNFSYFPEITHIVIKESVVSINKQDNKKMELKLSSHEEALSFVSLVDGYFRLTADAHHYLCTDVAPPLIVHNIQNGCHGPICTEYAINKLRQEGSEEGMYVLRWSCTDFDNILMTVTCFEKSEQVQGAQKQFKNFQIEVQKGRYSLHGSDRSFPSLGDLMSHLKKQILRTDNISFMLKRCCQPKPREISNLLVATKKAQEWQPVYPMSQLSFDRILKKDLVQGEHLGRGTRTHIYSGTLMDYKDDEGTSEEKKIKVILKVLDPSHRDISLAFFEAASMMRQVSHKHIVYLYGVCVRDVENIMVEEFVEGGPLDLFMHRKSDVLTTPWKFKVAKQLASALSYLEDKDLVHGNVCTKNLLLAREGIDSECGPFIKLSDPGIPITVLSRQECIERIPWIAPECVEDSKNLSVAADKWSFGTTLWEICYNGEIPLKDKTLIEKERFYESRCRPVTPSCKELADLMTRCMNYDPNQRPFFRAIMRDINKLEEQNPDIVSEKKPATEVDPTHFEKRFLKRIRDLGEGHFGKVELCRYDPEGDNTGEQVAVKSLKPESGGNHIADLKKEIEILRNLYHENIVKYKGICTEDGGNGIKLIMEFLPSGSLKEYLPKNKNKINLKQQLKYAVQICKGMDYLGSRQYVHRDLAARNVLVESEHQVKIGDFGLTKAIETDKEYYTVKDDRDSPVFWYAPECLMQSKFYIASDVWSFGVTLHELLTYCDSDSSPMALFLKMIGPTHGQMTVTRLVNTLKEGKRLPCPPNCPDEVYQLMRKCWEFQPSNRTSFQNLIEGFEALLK

Cc1cnc(Nc2cnn(C3CC(C)(C)OC(C)(C)C3)c2)nc1-c1ccc(C(=O)NCC#N)cc1 [crystal form I]
solubility at 1 h [1, 6]: 100 µg/mL (≈ 212 µM) | solubility at 4 h [1, 6]: 111 µg/mL (≈ 234 µM) | solubility at 24 h [1, 6]: 120 µg/mL (≈ 253 µM) | solubility at 1 h [1, 7]: 389 µg/mL (≈ 822 µM) | solubility at 4 h [1, 7]: 474 µg/mL (≈ 1000 µM) | solubility at 24 h [1, 7]: 627 µg/mL (≈ 1320 µM) | solubility at 1 h [1, 8]: 97.4 µg/mL (≈ 206 µM) | solubility at 4 h [1, 8]: 92.3 µg/mL (≈ 195 µM) | solubility at 24 h [1, 8]: 102 µg/mL (≈ 215 µM) | XRPD of remaining solid ([1]; simulated gastric juice): Crystal form I | solubility ([1]; simulated gastrointestinal fluid, 37 °C, fassgf or other biorelevant, thermodynamic from solid, summary statement): > 8 µg/mL | XRPD of remaining solid ([1]; simulated postprandial intestinal fluid): Crystal form I | XRPD of remaining solid ([1]; simulated pre-meal intestinal fluid): Crystal form I | pH after 24 h ([1]; suspension in simulated gastric juice): 2.1 (simulated | pH after 24 h ([1]; suspension in simulated postprandial intestinal fluid): 5.1 (simulated | pH after 24 h ([1]; suspension in simulated pre-meal intestinal fluid): 6.6 (simulated | hygroscopicity (hygroscopicity by DVS): no obvious hygroscopicity | Hygroscopicity, weight gain (DVS) (hygroscopicity by DVS; under 95% RH): Weight gain of 0.9% | IC50 (TYK2; 1 mM ATP): 1 nM | XRPD after pressing [2]: Crystal form I | change of crystal form after pressing [2]: The crystal form is not changed, | XRPD after wet grinding (simulated wet grinding; Ethanol): Crystal form I | change of crystal form after wet grinding (simulated wet grinding; Ethanol): The crystal form is not changed, and | change of crystallinity after wet grinding (simulated wet grinding; Ethanol): the crystallinity is slightly reduced | XRPD after wet grinding (simulated wet grinding; Water): Crystal form I | change of crystal form after wet grinding (simulated wet grinding; Water): The crystal form is not changed, and | change of crystallinity after wet grinding (simulated wet grinding; Water): the crystallinity is slightly reduced | XRPD result ([3]; Acetone (a.w. = 0), 10 days): Crystal form I | XRPD result ([3]; Acetone (a.w. = 0), 22 days): Crystal form I | XRPD result ([3]; Acetone/water 36:64 (a.w. = 0.9), 12 days): Crystal form I | XRPD result ([3]; Acetone/water 60.4:39.6 (a.w. = 0.8), 12 days): Crystal form I | XRPD result ([3]; Acetone/water 75.8:24.2 (a.w. = 0.7), 12 days): Crystal form I | XRPD result ([3]; Acetone/water 91:9 (a.w. = 0.6), 10 days): Crystal form I | XRPD result ([3]; Acetone/water 91:9 (a.w. = 0.6), 22 days): Crystal form I | XRPD result ([3]; Acetone/water 94:6 (a.w. = 0.5), 10 days): Crystal form I | XRPD result ([3]; Acetone/water 94:6 (a.w. = 0.5), 22 days): Crystal form I | XRPD result ([3]; Acetone/water 97:3 (a.w. = 0.3), 10 days): Crystal form I | XRPD result ([3]; Acetone/water 97:3 (a.w. = 0.3), 22 days): Crystal form I | XRPD result ([3]; Acetone/water 99:1 (a.w. = 0.1), 10 days): Crystal form I | XRPD result ([3]; Acetone/water 99:1 (a.w. = 0.1), 22 days): Crystal form I | XRPD result ([3]; Water (a.w. = 1), 10 days): Crystal form I | XRPD result ([3]; Water (a.w. = 1), 22 days): Crystal form I | crystal form stability over water activity range ([3]; up to 22 days, water activity range 1% to 100%): not transformed into a hydrate or other crystal forms | change of crystal form after dry grinding (simulated dry grinding): The crystal form is not changed, and | change of crystallinity after dry grinding (simulated dry grinding): the crystallinity is slightly reduced | stability: appearance, related substances, assay, moisture, crystal form, content, microbial limit ([4]; accelerated condition 40° C.±2° C./75%±5% RH, 6 months): microbial limit were not changed | Conclusion on crystal form ([4]; accelerated, intermediate condition and long term tests): keeps stable | stability: appearance, related substances, assay, moisture, crystal form, content ([4]; high humidity of 92.5% RH, 30 days): not changed | stability: appearance, related substances, assay, moisture, crystal form, content ([4]; high temperature of 60° C., 30 days): not changed | stability: appearance, related substances, assay, moisture, crystal form, content ([4]; illumination of 1×ICH (1.2×10^6 Lux·hr, 200 w·hr/m^2)): not changed | Conclusion on crystal form ([4]; influencing factor test: high temperature, high humidity, illumination): keeps stable | stability: appearance, related substances, assay, moisture, crystal form, content, microbial limit ([4]; long-term condition 25° C.±2° C./60%±5% RH, 18 months): microbial limit were not changed | IC50 (JAK1; 1 mM ATP): 10 nM | IC50 (JAK3): 275 nM | IC50 (JAK2): < 0.51 nM

N#CC[C@H](C1CCCC1)n1cc(-c2ncnc3[nH]ccc23)cn1 [Ruxolitinib]
tolerability [5]: well tolerated

Cc1cnc(Nc2cnn(C3CC(C)(C)OC(C)(C)C3)c2)nc1-c1ccc(C(=O)NCC#N)cc1 [LNK01004]
inhibition of p-STAT signaling pathway induced by multiple cytokines (p-STAT signaling pathway): can inhibit p-STAT signaling pathway | inhibitory effect on TYK2 (TYK2; preclinical study): strong inhibitory effect | inhibition of proliferation of keratinocytes (keratinocytes): can also inhibit the proliferation of keratinocytes | inhibitory effect on JAK1 (JAK1; preclinical study): strong inhibitory effect | inhibitory effect on JAK2 (JAK2; preclinical study): strong inhibitory effect
